Columns and labels:
SKOV3 tumor xenograft = assay: Biodistribution in SKOV3 tumor-bearing SCID mice; assay type: in vivo
[1] = tested on: rat orthotopic brain tumor model; conditions: rat orthotopic brain tumor model, 60 min; cited from earlier work
[2] = tested on: MDA MB468 estrogen-independent breast carcinoma cells; assay: Amino acid uptake and inhibition in MDA MB468 cells; assay type: cell-based, human; conditions: for Cell uptake: MDA MB468, 30 minutes incubation
DU145 tumor xenograft = assay: Biodistribution in DU145 tumor-bearing SCID mice; assay type: in vivo
[3] = 15 min post injection, listed as (R)-[^18F] FAMP 1
[4] = 30 min post injection, listed as (R)-[^18F] FAMP 1
[5] = 60 min post injection, listed as (R)-[^18F] FAMP 1
[6] = 120 min post injection, listed as (R)-[^18F] FAMP 1
[7] = 15 min post injection, listed as (S)-[^18F]FAMP 1
[8] = 30 min post injection, listed as (S)-[^18F]FAMP 1
[9] = 60 min post injection, listed as (S)-[^18F]FAMP 1
[10] = 120 min post injection, listed as (S)-[^18F]FAMP 1

## CC(N)(C[18F])C(=O)O [(R)-[^18F]1] [2-amino-3-[^18F]fluoro-2-methylpropanoic acid]
SKOV3 tumor xenograft; [3]
  uptake in bone: 2.6±1.0 %ID/g
  uptake in brain: 0.7±0.4 %ID/g
  uptake in heart: 4.0±2.1 %ID/g
  uptake in kidney: 17±4.5 %ID/g
  uptake in liver: 4.6±2.5 %ID/g
  uptake in lung: 3.9±1.3 %ID/g
  uptake in muscle: 2.3±1.1 %ID/g
  uptake in pancreas: 38±18 %ID/g
  uptake in spleen: 8.7±3.4 %ID/g
  uptake in tumor: 10±4.8 %ID/g
SKOV3 tumor xenograft; [4]
  uptake in blood: 2.7±0.3 %ID/g
  uptake in bone: 2.8±0.7 %ID/g
  uptake in brain: 1.0±0.04 %ID/g
  uptake in heart: 4.9±0.1 %ID/g
  uptake in kidney: 14±2.6 %ID/g
  uptake in liver: 5.0±0.7 %ID/g
  uptake in lung: 3.1±0.3 %ID/g
  uptake in muscle: 2.8±0.3 %ID/g
  uptake in pancreas: 41±7.4 %ID/g
  uptake in spleen: 13±3.6 %ID/g
  uptake in tumor: 14±1.1 %ID/g
SKOV3 tumor xenograft; [5]
  uptake in blood: 2.1±0.1 %ID/g
  uptake in bone: 2.3±0.3 %ID/g
  uptake in brain: 1.0±0.3 %ID/g
  uptake in heart: 4.9±1.1 %ID/g
  uptake in kidney: 10±0.8 %ID/g
  uptake in liver: 4.5±0.3 %ID/g
  uptake in lung: 2.5±0.3 %ID/g
  uptake in muscle: 2.6±0.6 %ID/g
  uptake in pancreas: 34±4.7 %ID/g
  uptake in spleen: 6.8±1.0 %ID/g
  uptake in tumor: 9.0±2.2 %ID/g
SKOV3 tumor xenograft; [6]
  uptake in blood: 1.5±0.2 %ID/g
  uptake in bone: 1.9±0.4 %ID/g
  uptake in brain: 1.2±0.2 %ID/g
  uptake in heart: 3.6±0.6 %ID/g
  uptake in kidney: 7.0±0.8 %ID/g
  uptake in liver: 2.7±0.5 %ID/g
  uptake in lung: 1.8±0.3 %ID/g
  uptake in muscle: 2.0±0.4 %ID/g
  uptake in pancreas: 19±2.4 %ID/g
  uptake in spleen: 4.5±1.1 %ID/g
  uptake in tumor: 6.2±0.5 %ID/g
[1]
  brain uptake: 0.1±0.02 %ID/g
[2]; 10 mM BCH
  Cell uptake: 3.0±0.4 % ID/5×10^5 cells
[2]; 10 mM MeAIB
  Cell uptake: 4.4±0.2 % ID/5×10^5 cells
[2]; Control (no inhibitor)
  Cell uptake: 5.7±0.3 % ID/5×10^5 cells
DU145 tumor xenograft; [3]
  uptake in blood: 5.2±1.2 %ID/g
  uptake in bone: 3.9±1.0 %ID/g
  uptake in brain: 1.0±0.3 %ID/g
  uptake in heart: 5.8±1.5 %ID/g
  uptake in kidney: 26±7.5 %ID/g
  uptake in liver: 7.2±3.4 %ID/g
  uptake in lung: 7.6±1.8 %ID/g
  uptake in muscle: 2.9±0.7 %ID/g
  uptake in pancreas: 62±20 %ID/g
  uptake in spleen: 17±7.6 %ID/g
  uptake in tumor: 8.8±1.9 %ID/g
DU145 tumor xenograft; [4]
  uptake in blood: 3.7±0.3 %ID/g
  uptake in bone: 4.0±0.3 %ID/g
  uptake in brain: 1.3±0.1 %ID/g
  uptake in heart: 5.6±0.6 %ID/g
  uptake in kidney: 16±2.2 %ID/g
  uptake in liver: 6.3±0.8 %ID/g
  uptake in lung: 3.1±0.4 %ID/g
  uptake in muscle: 3.5±0.5 %ID/g
  uptake in pancreas: 52±3.8 %ID/g
  uptake in spleen: 13±1.4 %ID/g
  uptake in tumor: 8.4±1.1 %ID/g
DU145 tumor xenograft; [5]
  uptake in blood: 2.2±0.3 %ID/g
  uptake in bone: 3.2±0.7 %ID/g
  uptake in brain: 1.5±0.3 %ID/g
  uptake in heart: 4.8±1.0 %ID/g
  uptake in kidney: 10±0.8 %ID/g
  uptake in liver: 5.5±1.0 %ID/g
  uptake in lung: 2.0±0.4 %ID/g
  uptake in muscle: 3.0±0.7 %ID/g
  uptake in pancreas: 39±6.9 %ID/g
  uptake in spleen: 11±2.9 %ID/g
  uptake in tumor: 7.9±1.7 %ID/g
DU145 tumor xenograft; [6]
  uptake in blood: 1.6±0.3 %ID/g
  uptake in bone: 2.6±0.5 %ID/g
  uptake in brain: 1.6±0.2 %ID/g
  uptake in heart: 4.9±0.9 %ID/g
  uptake in kidney: 7.9±0.7 %ID/g
  uptake in liver: 3.6±0.6 %ID/g
  uptake in lung: 2.1±0.8 %ID/g
  uptake in muscle: 2.7±0.8 %ID/g
  uptake in pancreas: 27±4.5 %ID/g
  uptake in spleen: 6.0±0.9 %ID/g
  uptake in tumor: 6.8±0.8 %ID/g

## CC(N)(C[18F])C(=O)O [(S)-[^18F]1] [2-amino-3-[^18F]fluoro-2-methylpropanoic acid]
SKOV3 tumor xenograft; [7]
  uptake in blood: 3.5±0.8 %ID/g
  uptake in bone: 2.2±0.7 %ID/g
  uptake in brain: 0.4±0.1 %ID/g
  uptake in heart: 2.8±0.8 %ID/g
  uptake in kidney: 31±6.8 %ID/g
  uptake in liver: 3.6±1.0 %ID/g
  uptake in lung: 4.8±1.3 %ID/g
  uptake in muscle: 2.8±0.9 %ID/g
  uptake in pancreas: 44±15 %ID/g
  uptake in spleen: 9.8±4.3 %ID/g
  uptake in tumor: 6.2±4.1 %ID/g
SKOV3 tumor xenograft; [8]
  uptake in blood: 3.1±0.7 %ID/g
  uptake in bone: 2.2±0.4 %ID/g
  uptake in brain: 0.5±0.1 %ID/g
  uptake in heart: 2.8±0.5 %ID/g
  uptake in kidney: 22±4.9 %ID/g
  uptake in liver: 3.9±0.6 %ID/g
  uptake in lung: 4.4±0.7 %ID/g
  uptake in muscle: 2.8±0.5 %ID/g
  uptake in pancreas: 40±13 %ID/g
  uptake in spleen: 8.4±2.1 %ID/g
  uptake in tumor: 7.3±3.0 %ID/g
SKOV3 tumor xenograft; [9]
  uptake in blood: 2.1±0.6 %ID/g
  uptake in bone: 1.7±0.6 %ID/g
  uptake in brain: 0.6±0.2 %ID/g
  uptake in heart: 2.6±0.7 %ID/g
  uptake in kidney: 15±4.8 %ID/g
  uptake in liver: 3.6±1.1 %ID/g
  uptake in lung: 3.2±1.1 %ID/g
  uptake in muscle: 2.2±0.7 %ID/g
  uptake in pancreas: 36±8.6 %ID/g
  uptake in spleen: 5.5±1.2 %ID/g
  uptake in tumor: 6.2±3.1 %ID/g
SKOV3 tumor xenograft; [10]
  uptake in bone: 1.6±1.1 %ID/g
  uptake in brain: 0.7±0.3 %ID/g
  uptake in heart: 2.6±1.4 %ID/g
  uptake in kidney: 11±5.0 %ID/g
  uptake in liver: 3.2±0.7 %ID/g
  uptake in lung: 2.3±0.8 %ID/g
  uptake in muscle: 1.7±0.9 %ID/g
  uptake in pancreas: 22±3.6 %ID/g
  uptake in spleen: 4.6±2.3 %ID/g
  uptake in tumor: 5.1±1.6 %ID/g
[1]
  brain uptake: 0.06±0.01 %ID/g
[2]; 10 mM BCH
  Cell uptake: 2.2±0.1 % ID/5×10^5 cells
[2]; 10 mM MeAIB
  Cell uptake: 3.5±0.2 % ID/5×10^5 cells
[2]; Control (no inhibitor)
  Cell uptake: 3.4±0.3 % ID/5×10^5 cells
[2]; MDA MB468 cells, 10 mM MeAIB
  inhibition of uptake by MeAIB: no significant MeAIB inhibition
DU145 tumor xenograft; [7]
  uptake in blood: 5.1±1.1 %ID/g
  uptake in bone: 2.4±1.1 %ID/g
  uptake in brain: 0.6±0.1 %ID/g
  uptake in heart: 3.2±1.2 %ID/g
  uptake in kidney: 36±5.1 %ID/g
  uptake in liver: 3.4±0.6 %ID/g
  uptake in lung: 6.5±1.5 %ID/g
  uptake in muscle: 4.0±0.8 %ID/g
  uptake in pancreas: 55±8.8 %ID/g
  uptake in spleen: 7.9±2.3 %ID/g
  uptake in tumor: 3.2±2.5 %ID/g
DU145 tumor xenograft; [8]
  uptake in blood: 2.9±1.1 %ID/g
  uptake in bone: 2.2±0.5 %ID/g
  uptake in brain: 0.5±0.2 %ID/g
  uptake in heart: 3.2±1.3 %ID/g
  uptake in kidney: 21±6.2 %ID/g
  uptake in liver: 2.9±0.9 %ID/g
  uptake in lung: 5.0±2.6 %ID/g
  uptake in muscle: 2.9±0.2 %ID/g
  uptake in pancreas: 37±13 %ID/g
  uptake in spleen: 6.6±1.1 %ID/g
  uptake in tumor: 1.8±0.4 %ID/g
DU145 tumor xenograft; [9]
  uptake in blood: 2.4±0.04 %ID/g
  uptake in bone: 2.1±0.2 %ID/g
  uptake in brain: 0.6±0.1 %ID/g
  uptake in heart: 3.5±0.3 %ID/g
  uptake in kidney: 17±0.6 %ID/g
  uptake in liver: 3.3±0.5 %ID/g
  uptake in lung: 3.4±0.8 %ID/g
  uptake in muscle: 2.5±0.3 %ID/g
  uptake in pancreas: 36±3.1 %ID/g
  uptake in spleen: 9.2±5.1 %ID/g
  uptake in tumor: 3.4±1.7 %ID/g
DU145 tumor xenograft; [10]
  uptake in blood: 1.8±0.4 %ID/g
  uptake in bone: 1.6±0.4 %ID/g
  uptake in brain: 0.6±0.1 %ID/g
  uptake in heart: 3.0±0.7 %ID/g
  uptake in kidney: 13±1.7 %ID/g
  uptake in liver: 2.8±0.7 %ID/g
  uptake in lung: 3.3±1.1 %ID/g
  uptake in muscle: 1.7±0.5 %ID/g
  uptake in pancreas: 28±7.4 %ID/g
  uptake in spleen: 5.3±1.8 %ID/g
  uptake in tumor: 3.5±0.7 %ID/g

— publication PMC4268243 (Nuclear medicine and biology, 2014)
